According to patent US20260356860A1, “2-SUBSTITUTED 3,4A,5,7,8,8A-HEXAHYDRO-4H-THIOPYRANO[4,3-DJPYRIMIDIN-4-ONES FOR WOUND TREATMENT” (priority 2022, published 2026):

Experiments:
Test in all cases: Bacteriostasis, log reduction
Type in all cases: cell-based
[1] = system: S. pyogenes (derived from ATCC ® 19615 ™); conditions: S. pyogenes ATCC 19615
Experimental: (§1) In order to assess the log reduction capabilities of compounds of Formula (1), testing was performed on organisms that are found in acute and chronic wounds. Triplicate tubes were prepared for each bacteria using 50 μL of inoculum (about 1×10^6 CFU/mL) which was added to 450 μL of compound solution (compound of Formula (I)) (or 100 μL of inoculum in 900 μL of compound solution), resulting in a final inoculum of about 1×10^5 CFU/mL, as shown in Table 4.
(§2) Tubes were mixed with a vortex and then incubated in a shaking incubator at 175 RPM and 35° C. to 37° C.
(§3) Positive control in Tables 5a and 5b was 1 mL of 0.89% saline with 1 mL of the 1×10^6 CFU/mL of the organism.
(§4) For Compounds 1, 7, 8, 10, and 18 in Tables 6, 7-A, 7-B, 8, 9, 10-A, 10-B, and 11: The compound solutions were prepared with compound (30 mg), polysorbate 20 (1.6 mL), butylene glycol (1.6 mL), phosphatidyl choline (0.66 g), ethanol (1.6 mL), hydroxypropyl cellulose (0.26 g), and ultra pure water (24.9 mL).
(§5) XAV939 Control in Table X1 was XAV939 (30 mg), polysorbate 20 (1.6 mL), butylene glycol (1.6 mL), phosphatidyl choline (0.66 g), ethanol (1.6 mL), ultra pure water (24.9 mL), and hydroxypropyl cellulose (0.26 g).
(§6) GO-HA Control in Table X2 was GO-HA (30 mg), polysorbate 20 (1.6 mL), butylene glycol (1.6 mL), phosphatidyl choline (0.66 g), ethanol (1.6 mL), ultra pure water (24.9 mL), and hydroxypropyl cellulose (0.26 g).
(§7) For Compound 18+GO-HA in Tables 6 and X4: compound 18 (45 mg), GO-HA (45 mg), polysorbate 20 (2 mL), butylene glycol (2 mL), phosphotidyl choline (0.5 g), ethanol (2 mL), hydroxypropyl cellulose (0.40 g), and ultra pure water (40 mL).
(§8) For XAV939+GO-HA in Tables 6 and X3-A, and X3-B: XAV939 (45 mg), GO-HA (45 mg), butylene glycol (2 mL), polysorbate 20 (2 mL), phosphotidyl choline (0.5 g), ethanol (2 mL), hydroxypropyl cellulose (0.40 g), and ultra pure water (40 mL).
(§9) Testing was performed at two time points: 18 to 24 hours, and […].

[2] = system: P. aeruginosa (derived from ATCC ® 15442 ™); conditions: P. aeruginosa ATCC 15442
Experimental: as §1, §2, §3, §4, §5, §6, §7, §8, §9

[3] = system: S. aureus (derived from ATCC ® 6538 ™); conditions: S. aureus ATCC 6538
Experimental: as §1, §2, §3, §4, §5, §6, §7, §8, §9

[4] = system: S. aureus (MRSA) (derived from ATCC ® 33593 ™); conditions: S. aureus (MRSA) ATCC 33593
Experimental: as §1, §2, §3, §4, §5, §6, §7, §8, §9

[5] = system: S. epidermidis (derived from ATCC ® 14990 ™); conditions: S. epidermidis ATCC 14990
Experimental: as §1, §2, §3, §4, §5, §6, §7, §8, §9

[6] = system: E. coli (derived from ATCC ® 25922 ™); conditions: E. coli ATCC 25922
Experimental: as §1, §2, §3, §4, §5, §6, §7, §8, §9

[7] = system: S. maltophilia (derived from ATCC ® 13637 ™); conditions: S. maltophilia ATCC 13637
Experimental: as §1, §2, §3, §4, §5, §6, §7, §8, §9

[8] = system: K. pneumoniae (derived from ATCC ® 10031 ™); conditions: K. pneumoniae ATCC 10031
Experimental: as §1, §2, §3, §4, §5, §6, §7, §8, §9

[9] = system: E. coli 0157:H7 (derived from ATCC ® 12900 ™); conditions: E. coli 0157:H7 ATCC 12900
Experimental: as §1, §2, §3, §4, §5, §6, §7, §8, §9

[10] = system: E. coli (derived from ATCC ® 8739 ™); conditions: E. coli ATCC 8739
Experimental: as §1, §2, §3, §4, §5, §6, §7, §8, §9

[11] = system: A. baumannii (derived from ATCC ® 19606 ™); conditions: A. baumannii ATCC 19606
Experimental: as §1, §2, §3, §4, §5, §6, §7, §8, §9

[12] = system: E. faecalis (derived from ATCC ® 19433 ™); conditions: E. faecalis ATCC 19433
Experimental: as §1, §2, §3, §4, §5, §6, §7, §8, §9

O=c1[nH]c(-c2ccc(-c3ccc(B(O)O)cc3)cc2)nc2c1CSCC2 [Compound 10, (4′-(4-oxo-3,5,7,8-tetrahydro-4H-thiopyrano[4,3-d]pyrimidin-2-yl)-[1,1′-biphenyl]-4-yl)boronic acid]
Average result ([1]; 24 h): <200
Log Reduction ([1]; 24 h): >3.2
Log Value ([1]; 24 h): <2.3
Average result ([1]; 72 h): <200
Log Reduction ([1]; 72 h): >3.2
Log Value ([1]; 72 h): <2.3
Average result ([2]; 24 h): <200
Log Reduction ([2]; 24 h): >3.1
Log Value ([2]; 24 h): <2.3
Average result ([2]; 72 h): <200
Log Reduction ([2]; 72 h): >3.1
Log Value ([2]; 72 h): <2.3
Average result ([3]; 24 h): 1.5 × 10^5
Log Reduction ([3]; 24 h): 0.1
Log Value ([3]; 24 h): 5.2
Average result ([3]; 72 h): 6.7 × 10^3
Log Reduction ([3]; 72 h): 1.5
Log Value ([3]; 72 h): 3.8
Average result ([4]; 24 h): 3.1 × 10^4
Log Reduction ([4]; 24 h): 0.1
Log Value ([4]; 24 h): 4.5
Average result ([4]; 72 h): 2.7 × 10^3
Log Reduction ([4]; 72 h): 1.2
Log Value ([4]; 72 h): 3.4
Average result ([5]; 24 h): 1.1 × 10^4
Log Reduction ([5]; 24 h): 0.8
Log Value ([5]; 24 h): 4.0
Average result ([5]; 72 h): 3.3 × 10^2
Log Reduction ([5]; 72 h): 2.3
Log Value ([5]; 72 h): 2.5
Average result ([6]; 24 h): <200
Log Reduction ([6]; 24 h): >3.1
Log Value ([6]; 24 h): <2.3
Average result ([6]; 72 h): <200
Log Reduction ([6]; 72 h): >3.1
Log Value ([6]; 72 h): <2.3
Average result ([7]; 24 h): <200
Log Reduction ([7]; 24 h): >2.8
Log Value ([7]; 24 h): <2.3
Average result ([7]; 72 h): <200
Log Reduction ([7]; 72 h): >2.8
Log Value ([7]; 72 h): <2.3
Average result ([8]; 24 h): <200
Log Reduction ([8]; 24 h): >2.5
Log Value ([8]; 24 h): <2.3
Average result ([8]; 72 h): <200
Log Reduction ([8]; 72 h): >2.5
Log Value ([8]; 72 h): <2.3
Average result ([9]; 24 h): <200
Log Reduction ([9]; 24 h): >1.9
Log Value ([9]; 24 h): <2.3
Average result ([9]; 72 h): <200
Log Reduction ([9]; 72 h): >1.9
Log Value ([9]; 72 h): <2.3
Average result ([10]; 24 h): <200
Log Reduction ([10]; 24 h): >3.2
Log Value ([10]; 24 h): <2.1
Average result ([10]; 72 h): 6.0 × 10^2
Log Reduction ([10]; 72 h): 2.5
Log Value ([10]; 72 h): 2.8
Average result ([11]; 24 h): <200
Log Reduction ([11]; 24 h): >3.0
Log Value ([11]; 24 h): <2.3
Average result ([11]; 72 h): <200
Log Reduction ([11]; 72 h): >3.0
Log Value ([11]; 72 h): <2.3
Average result ([12]; 24 h): 2.9 × 10^4
Log Reduction ([12]; 24 h): 0.3
Log Value ([12]; 24 h): 4.5
Average result ([12]; 72 h): <200
Log Reduction ([12]; 72 h): >2.5
Log Value ([12]; 72 h): <2.3

COC(=O)NCCOC(C)(C)c1ccc(-c2nc3c(c(=O)[nH]2)CSCC3)cc1 [Compound 18, methyl (2-((2-(4-(4-oxo-3,5,7,8-tetrahydro-4H-thiopyrano[4,3-d]pyrimidin-2-yl)phenyl)propan-2-yl)oxy)ethyl)carbamate]
Average result ([1]; 24 h): <200
Log Reduction ([1]; 24 h): >3.2
Log Value ([1]; 24 h): <2.3
Average result ([1]; 72 h): <200
Log Reduction ([1]; 72 h): >3.2
Log Value ([1]; 72 h): <2.3
Average result ([2]; 24 h): <200
Log Reduction ([2]; 24 h): >2.9
Log Value ([2]; 24 h): <2.3
Average result ([2]; 72 h): <200
Log Reduction ([2]; 72 h): >2.9
Log Value ([2]; 72 h): <2.3
Average result ([3]; 24 h): 4.7 × 10^4
Log Reduction ([3]; 24 h): 0.5
Log Value ([3]; 24 h): 4.7
Average result ([3]; 72 h): 9.3 × 10^2
Log Reduction ([3]; 72 h): 2.2
Log Value ([3]; 72 h): 3.0
Average result ([4]; 24 h): 1.5 × 10^3
Log Reduction ([4]; 24 h): 1.6
Log Value ([4]; 24 h): 3.2
Average result ([4]; 72 h): <200
Log Reduction ([4]; 72 h): >2.5
Log Value ([4]; 72 h): <2.3
Average result ([5]; 24 h): 8.0 × 10^2
Log Reduction ([5]; 24 h): 2.0
Log Value ([5]; 24 h): 2.9
Average result ([5]; 72 h): <200
Log Reduction ([5]; 72 h): >2.6
Log Value ([5]; 72 h): <2.3
Average result ([6]; 24 h): <200
Log Reduction ([6]; 24 h): >2.3
Log Value ([6]; 24 h): <2.3
Average result ([6]; 72 h): <200
Log Reduction ([6]; 72 h): >2.3
Log Value ([6]; 72 h): <2.3
Average result ([7]; 24 h): <200
Log Reduction ([7]; 24 h): >2.8
Log Value ([7]; 24 h): <2.3
Average result ([7]; 72 h): <200
Log Reduction ([7]; 72 h): >2.8
Log Value ([7]; 72 h): <2.3
Average result ([8]; 24 h): <200
Log Reduction ([8]; 24 h): >2.5
Log Value ([8]; 24 h): <2.3
Average result ([8]; 72 h): <200
Log Reduction ([8]; 72 h): >2.5
Log Value ([8]; 72 h): <2.3
Average result ([9]; 24 h): <200
Log Reduction ([9]; 24 h): >1.9
Log Value ([9]; 24 h): <2.3
Average result ([9]; 72 h): <200
Log Reduction ([9]; 72 h): >1.9
Log Value ([9]; 72 h): <2.3
Average result ([10]; 24 h): 5.3 × 10^2
Log Reduction ([10]; 24 h): 1.8
Log Value ([10]; 24 h): 2.7
Average result ([10]; 72 h): <200
Log Reduction ([10]; 72 h): >2.2
Log Value ([10]; 72 h): <2.3
Average result ([11]; 24 h): <200
Log Reduction ([11]; 24 h): >3.0
Log Value ([11]; 24 h): <2.3
Average result ([11]; 72 h): <200
Log Reduction ([11]; 72 h): >3.0
Log Value ([11]; 72 h): <2.3
Average result ([12]; 24 h): 2.7 × 10^5
Log Reduction ([12]; 24 h): No
Log Value ([12]; 24 h): 5.4
Average result ([12]; 72 h): 1.9 × 10^5
Log Reduction ([12]; 72 h): No
Log Value ([12]; 72 h): 5.3
